Our source for the GI50 and TGI values is PubChem BioAssay (NCI).

Holding throughout (experiment): DTP human tumour cell line panel, 48 h
In assay [1] the test system is A498 renal.
For assay [2], the system named is A549 NSCLC.
Assay [3] deals with COLO 205 colon.
Assay [4] deals with HS 578T breast.
For assay [5], the system named is LOX IMVI melanoma.
In assay [6] the test system is MDA-MB-231 breast.
The subject of assay [7] is OVCAR-5 ovarian.
The test system of assay [8] is PC-3 prostate.
Assay [9] relates to T-47D breast.
Assay [10] concerns U251 CNS.

The structures appear in SMILES notation. Where “and” joins values, the source holds several entries; their conditions need not be identical. Identical values can stand only once.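 Tested at 5 concentrations; 48 h exposure; 96-well plates; endpoints linearly interpolated, else capped at highest concentration. GI50 = concentration required for 50% inhibition of growth. Definition used: TGI = concentration required for complete inhibition of growth.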 Bounds are passed on as bounds.

In the case of `O=C1CSC(c2ccccc2O)N1c1nnc(Cn2ccnc2)o1` (stereo not given), the GI50 is 21 µM in assay [1]; 35.5 µM in [2]; 12.9 µM in [3]; 20.5 µM in [4]; 6.58 µM in [5]; 6.25 µM in assay [6]. Further, the GI50 is 22.1 µM in assay [7], 6.2 µM in assay [8], 6.11 µM in assay [9] and 11.7 µM in [10]. In addition, the total growth inhibition concentration (TGI) in [1] is 46 µM; in assay [2] it was > 100 µM; in assay [3] it was 45.7 µM; in assay [4], > 100 µM; in assay [5], 24.8 µM; in assay [6], 71.4 µM. The total growth inhibition concentration (TGI) in assay [7] is 50.7 µM; in assay [8], 30.4 µM; in [9], 27.2 µM; in assay [10], 63.6 µM.

For `Oc1c(Cl)cc(Cl)c2cccnc12`, the GI50 in assay [1] is 2.92 µM; in assay [2], 3.49 µM; in [3] it was 3.43 µM; in assay [4] it was 6.88 µM; in assay [5], 2.18 µM; in assay [6] it was 3.04 µM. The GI50 in assay [7] was 8.71 µM; in [8], 3.94 µM; in [9], 2.35 µM; in assay [10] it was 2.67 µM. For the same compound, the TGI in [1] is 12.1 µM; in [2], 29.6 µM; in assay [3], 13.4 µM; in [4], > 100 µM; in assay [5] it was 15.7 µM; in assay [6], 18.3 µM. Besides, the TGI in assay [7] was 43.3 µM; in [8], > 100 µM; in assay [9], 12 µM; in assay [10], 55 µM.

With `COc1ccc(Oc2ccccc2NC(=O)CNC(=O)c2cccc3ccccc23)cc1`, the GI50 in [1] was 0.564 µM; in assay [2], 1.25 µM; in assay [3] it was 0.64 µM; in [4], 1.71 µM; in assay [5], 1.34 µM; in assay [6], 2.25 µM. The GI50 in [7] is 1.98 µM; in assay [8], 1.06 µM; in assay [9] it was 2.52 µM; in [10], 1.06 µM. Besides, the TGI in assay [1] is 10.4 µM; in [2], > 25 µM; in [3], 2.04 µM; in assay [4], > 25 µM; in assay [5] it was > 25 µM; in [6], > 25 µM. For the same compound, the TGI was > 25 µM in [7], > 25 µM in assay [8], 19.6 µM in [9] and > 25 µM in assay [10].

In the case of `C[C@H]1c2ccccc2CN1CCCOc1cc2c(cc1OCC1CC1)C1(CCCC1)C(N)=N2`, the GI50 in assay [1] was 1.56 µM; in assay [2], 1.94 µM; in assay [3] it was 0.842 µM; in assay [4] it was 1.74 µM; in assay [5], 0.845 µM; in [6], 1.44 µM. Also, the GI50 was 3.6 µM in assay [7], 1.69 µM in assay [8], 0.99 µM in assay [9] and 1.31 µM in [10]. Moreover, the total growth inhibition concentration (TGI) was found to be 5.69 µM in assay [1]; 7.61 µM in [2]; 1.68 µM in assay [3]; 9.44 µM in assay [4]; 1.57 µM in [5]; 5.21 µM in assay [6]. For the same compound, the TGI in assay [7] came out at 10.1 µM; in assay [8], 7.6 µM; in assay [9], 2.5 µM; in assay [10], 4.08 µM.

On to `O=C1CCC(N2C(=O)c3cccc(NCCCC4CCN(CCNC(=O)c5cc6c(o5)C(=O)c5ccccc5C6=O)CC4)c3C2=O)C(=O)N1` (stereo not given), for which the GI50 was 1.41 µM in assay [1]; 0.189 µM in assay [2]; 0.266 µM in [3]; 1.95 µM in assay [4]; 0.288 µM in assay [5]; 0.67 µM in [6]. Further, the GI50 in assay [7] was 0.653 µM; in assay [8], 0.976 µM; in assay [9], 1.82 µM; in assay [10], 1.14 µM. Also, the TGI in [1] stood at 2.75 µM; in assay [2], 0.471 µM; in [3], 0.808 µM; in [4], 6.9 µM; in assay [5], 1.13 µM; in assay [6], 6.83 µM. The TGI in [7] was 2 µM; in assay [8], > 76.4 µM; in [9], 11 µM; in [10] it was 2.45 µM.

For `CC/C=C\C/C=C/C=C1/C(=O)C=C[C@@H]1C/C=C\CCCC(=O)OC`, the GI50 is 8.68 µM in assay [1]; 5.71 µM in [2]; 2.14 µM in assay [3]; 15.1 µM in [4]; 0.417 µM in assay [5]; 3.55 µM in assay [6]. In addition, the GI50 is 3.32 µM in assay [7], 2.44 µM in [8], 3.9 µM in [9] and 2.35 µM in assay [10]. Further, the concentration for total growth inhibition (TGI) in assay [1] was 23 µM; in assay [2], 52.6 µM; in assay [3] it was 5.23 µM; in assay [4], > 100 µM; in assay [5], 1.79 µM; in assay [6], 11.3 µM. Further, the TGI in assay [7] amounted to 11.1 µM; in assay [8] it was 7.1 µM; in assay [9] it was 24 µM; in assay [10] it was 6.83 µM.

`C=CCn1c(=O)c2cnc(Nc3ccc(N4CCN(C)CC4)cc3)nc2n1-c1cccc(C(C)(C)O)n1`: the concentration for 50% growth inhibition (GI50) is 0.0319 µM and 0.0572 µM in assay [1]; 1.14 µM and 1.47 µM in assay [2]; 0.311 µM and 0.623 µM in assay [3]; 0.894 µM and 0.471 µM in assay [4]; 0.433 µM and 0.537 µM in [5]; 1.33 µM and 0.624 µM in assay [6]. Further, the GI50 in assay [7] is 0.557 µM and 1.05 µM; in assay [8] it was 1.41 µM and 1.06 µM; in assay [9], 2.52 µM and 0.644 µM; in assay [10], 0.707 µM and 1.18 µM. In addition, the concentration for total growth inhibition (TGI) in assay [1] was 0.364 µM and 0.448 µM; in assay [2], 11.4 µM and > 10 µM; in [3] it was 2.41 µM and > 6.7 µM; in assay [4], > 60 µM; in [5], 6.06 µM and > 7.93 µM; in assay [6] it was 27.4 µM and > 7.83 µM. Further, the TGI is > 100 µM in assay [7]; > 65.6 µM in assay [8]; > 100 µM in assay [9]; 19.9 µM and > 10 µM in [10].
